How the values were obtained:
[1] = molecular target: 5-hydroxytryptamine receptor 4 (Cavia porcellus, UniProt O70528); assay type: cell membranes, Dunkin-Hartley, Striatum, Membrane; note: in other assays of this panel Not Active means under 50% inhibition at 10 µM
[2] = molecular target: T1, C-X-C chemokine receptor type 2 (Homo sapiens, UniProt P25025); assay type: cell membranes, Membrane; conditions: cho-k1; note: in other assays of this panel Not Active means under 50% inhibition at 10 µM
T1 sequence (P25025 whole entry): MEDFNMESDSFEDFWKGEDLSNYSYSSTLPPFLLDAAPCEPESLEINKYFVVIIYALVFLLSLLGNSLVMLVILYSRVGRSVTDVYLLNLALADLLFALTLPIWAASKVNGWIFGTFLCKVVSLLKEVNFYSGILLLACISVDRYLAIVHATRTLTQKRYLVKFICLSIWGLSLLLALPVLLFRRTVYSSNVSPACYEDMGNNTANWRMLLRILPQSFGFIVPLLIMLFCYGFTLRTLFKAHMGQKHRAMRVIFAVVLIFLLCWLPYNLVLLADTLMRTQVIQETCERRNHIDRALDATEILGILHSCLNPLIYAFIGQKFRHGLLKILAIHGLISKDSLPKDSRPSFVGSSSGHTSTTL

[3] = molecular target: T2, Vasoactive intestinal polypeptide receptor 1 (Homo sapiens, UniProt P32241); assay type: cell membranes, Membrane; conditions: ht-29; note: in other assays of this panel Not Active means under 50% inhibition at 10 µM
T2 sequence (P32241 whole entry): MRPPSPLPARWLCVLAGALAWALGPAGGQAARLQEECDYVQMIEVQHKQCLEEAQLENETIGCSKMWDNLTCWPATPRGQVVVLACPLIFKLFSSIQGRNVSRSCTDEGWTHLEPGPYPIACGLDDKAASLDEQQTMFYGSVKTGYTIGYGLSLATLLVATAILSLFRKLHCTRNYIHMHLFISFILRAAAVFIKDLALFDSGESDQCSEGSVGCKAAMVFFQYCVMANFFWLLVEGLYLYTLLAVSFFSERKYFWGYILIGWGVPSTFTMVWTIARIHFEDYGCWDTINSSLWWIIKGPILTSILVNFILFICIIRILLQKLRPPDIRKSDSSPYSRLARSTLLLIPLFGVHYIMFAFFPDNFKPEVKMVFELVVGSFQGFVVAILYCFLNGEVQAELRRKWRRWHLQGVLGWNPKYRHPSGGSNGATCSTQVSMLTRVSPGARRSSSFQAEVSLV

Leukotriene C4 synthase = molecular target: T3, Leukotriene C4 synthase (Cavia porcellus, UniProt A6XA80); assay: biochemical; assay type: tissue-based, Lung;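 note: enzyme inhibition assay of leukotriene C4 synthase, using LTA4 as the substrate; in other assays of this panel Not Active means under 50% inhibition at 10 µM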
T3 sequence (A6XA80 whole entry): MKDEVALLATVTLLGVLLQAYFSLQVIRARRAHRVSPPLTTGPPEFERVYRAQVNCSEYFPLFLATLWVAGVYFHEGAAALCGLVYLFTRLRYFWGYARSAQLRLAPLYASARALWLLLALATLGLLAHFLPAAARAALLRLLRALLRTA

[4] = DRUGMATRIX: GABAA, Flunitrazepam, Central radioligand binding (ligand: [3H] Flunitrazepam); assay type: cell membranes, Rattus norvegicus, Wistar, Brain, Membrane; conditions: Not Active = under 50% inhibition at 10 µM
[5] = molecular target: Matrix metalloproteinase-9 (Homo sapiens, UniProt P14780); assay type: cell-based
Matrix metalloproteinase-9, sequence (P14780 whole entry): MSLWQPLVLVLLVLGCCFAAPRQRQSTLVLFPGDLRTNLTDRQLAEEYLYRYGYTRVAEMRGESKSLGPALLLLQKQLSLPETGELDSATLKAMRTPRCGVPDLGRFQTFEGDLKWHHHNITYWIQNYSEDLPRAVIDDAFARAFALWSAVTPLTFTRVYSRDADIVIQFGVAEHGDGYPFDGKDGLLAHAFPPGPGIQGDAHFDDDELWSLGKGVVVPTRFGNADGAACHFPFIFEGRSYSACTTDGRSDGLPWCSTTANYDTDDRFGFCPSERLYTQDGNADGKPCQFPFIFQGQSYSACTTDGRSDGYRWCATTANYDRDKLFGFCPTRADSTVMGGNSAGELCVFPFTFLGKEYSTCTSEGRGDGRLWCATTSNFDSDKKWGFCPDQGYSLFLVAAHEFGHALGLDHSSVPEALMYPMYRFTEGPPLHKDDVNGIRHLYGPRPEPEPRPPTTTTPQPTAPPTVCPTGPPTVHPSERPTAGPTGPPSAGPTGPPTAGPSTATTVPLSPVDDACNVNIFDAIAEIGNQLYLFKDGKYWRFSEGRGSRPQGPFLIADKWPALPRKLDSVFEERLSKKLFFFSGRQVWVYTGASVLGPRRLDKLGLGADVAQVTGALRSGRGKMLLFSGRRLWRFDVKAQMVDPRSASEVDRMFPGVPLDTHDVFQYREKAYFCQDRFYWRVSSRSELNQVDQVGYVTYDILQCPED

[6] = DRUGMATRIX: Atrial Natriuretic Factor (ANF) radioligand binding (ligand: [125I] ANF (rat)); assay type: cell membranes, Cavia porcellus, Dunkin-Hartley, Adrenal gland, Membrane; conditions: Not Active = under 50% inhibition at 10 µM
[7] = molecular target: 5-hydroxytryptamine receptor 6 (Homo sapiens, UniProt P50406); assay type: cell membranes, HeLa, Membrane; note: in other assays of this panel Not Active means under 50% inhibition at 10 µM
5-hydroxytryptamine receptor 6, sequence (P50406 whole entry): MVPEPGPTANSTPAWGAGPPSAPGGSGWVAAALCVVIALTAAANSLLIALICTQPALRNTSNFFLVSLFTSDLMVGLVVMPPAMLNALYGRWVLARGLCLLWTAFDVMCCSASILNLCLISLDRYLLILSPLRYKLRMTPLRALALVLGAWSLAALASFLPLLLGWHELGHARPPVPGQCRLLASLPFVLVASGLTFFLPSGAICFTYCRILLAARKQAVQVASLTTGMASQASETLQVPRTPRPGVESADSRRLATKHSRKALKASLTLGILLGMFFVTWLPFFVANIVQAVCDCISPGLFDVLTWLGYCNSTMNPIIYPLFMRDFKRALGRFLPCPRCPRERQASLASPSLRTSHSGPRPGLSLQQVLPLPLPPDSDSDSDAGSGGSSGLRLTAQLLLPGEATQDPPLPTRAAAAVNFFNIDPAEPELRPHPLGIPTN

Thromboxane-A synthase = molecular target: T4, Thromboxane-A synthase (Homo sapiens, UniProt P24557); assay: biochemical; assay type: tissue-based, Platelet; conditions: platelet
T4 sequence (P24557 whole entry): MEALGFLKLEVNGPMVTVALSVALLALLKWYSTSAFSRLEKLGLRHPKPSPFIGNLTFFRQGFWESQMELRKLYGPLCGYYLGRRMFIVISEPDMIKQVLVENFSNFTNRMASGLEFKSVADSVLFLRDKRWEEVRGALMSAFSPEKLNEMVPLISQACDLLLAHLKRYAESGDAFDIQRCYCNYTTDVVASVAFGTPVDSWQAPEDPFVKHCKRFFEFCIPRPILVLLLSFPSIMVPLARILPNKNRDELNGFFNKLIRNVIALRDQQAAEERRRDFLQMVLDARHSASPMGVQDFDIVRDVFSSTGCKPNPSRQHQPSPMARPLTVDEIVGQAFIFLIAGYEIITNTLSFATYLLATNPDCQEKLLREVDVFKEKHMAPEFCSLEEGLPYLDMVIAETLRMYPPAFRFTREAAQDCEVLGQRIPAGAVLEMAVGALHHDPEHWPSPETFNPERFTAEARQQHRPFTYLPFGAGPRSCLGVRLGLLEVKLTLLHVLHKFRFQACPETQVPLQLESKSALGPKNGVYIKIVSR

Calcitonin receptor = molecular target: T5, Calcitonin receptor (Homo sapiens, UniProt P30988); assay type: cell membranes, Membrane; conditions: t47d; note: in other assays of this panel Not Active means under 50% inhibition at 10 µM
T5 sequence (P30988 whole entry): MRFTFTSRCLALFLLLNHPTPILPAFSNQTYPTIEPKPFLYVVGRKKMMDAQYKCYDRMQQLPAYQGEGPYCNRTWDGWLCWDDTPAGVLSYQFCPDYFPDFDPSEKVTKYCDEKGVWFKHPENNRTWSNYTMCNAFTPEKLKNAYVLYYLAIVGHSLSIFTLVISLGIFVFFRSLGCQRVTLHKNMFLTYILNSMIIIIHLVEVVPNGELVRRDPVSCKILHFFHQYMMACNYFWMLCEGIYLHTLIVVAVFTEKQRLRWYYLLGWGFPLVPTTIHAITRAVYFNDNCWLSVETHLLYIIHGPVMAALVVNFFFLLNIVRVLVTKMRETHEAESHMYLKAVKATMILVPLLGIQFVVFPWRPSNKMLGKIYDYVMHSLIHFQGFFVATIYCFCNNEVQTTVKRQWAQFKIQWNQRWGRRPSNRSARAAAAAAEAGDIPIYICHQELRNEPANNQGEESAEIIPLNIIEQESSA

[8] = molecular target: Vascular endothelial growth factor receptor 1 (Homo sapiens, UniProt P17948); assay type: cell-based; conditions: huvec; note: in other assays of this panel Not Active means under 50% inhibition at 10 µM
Vascular endothelial growth factor receptor 1, sequence (P17948 whole entry): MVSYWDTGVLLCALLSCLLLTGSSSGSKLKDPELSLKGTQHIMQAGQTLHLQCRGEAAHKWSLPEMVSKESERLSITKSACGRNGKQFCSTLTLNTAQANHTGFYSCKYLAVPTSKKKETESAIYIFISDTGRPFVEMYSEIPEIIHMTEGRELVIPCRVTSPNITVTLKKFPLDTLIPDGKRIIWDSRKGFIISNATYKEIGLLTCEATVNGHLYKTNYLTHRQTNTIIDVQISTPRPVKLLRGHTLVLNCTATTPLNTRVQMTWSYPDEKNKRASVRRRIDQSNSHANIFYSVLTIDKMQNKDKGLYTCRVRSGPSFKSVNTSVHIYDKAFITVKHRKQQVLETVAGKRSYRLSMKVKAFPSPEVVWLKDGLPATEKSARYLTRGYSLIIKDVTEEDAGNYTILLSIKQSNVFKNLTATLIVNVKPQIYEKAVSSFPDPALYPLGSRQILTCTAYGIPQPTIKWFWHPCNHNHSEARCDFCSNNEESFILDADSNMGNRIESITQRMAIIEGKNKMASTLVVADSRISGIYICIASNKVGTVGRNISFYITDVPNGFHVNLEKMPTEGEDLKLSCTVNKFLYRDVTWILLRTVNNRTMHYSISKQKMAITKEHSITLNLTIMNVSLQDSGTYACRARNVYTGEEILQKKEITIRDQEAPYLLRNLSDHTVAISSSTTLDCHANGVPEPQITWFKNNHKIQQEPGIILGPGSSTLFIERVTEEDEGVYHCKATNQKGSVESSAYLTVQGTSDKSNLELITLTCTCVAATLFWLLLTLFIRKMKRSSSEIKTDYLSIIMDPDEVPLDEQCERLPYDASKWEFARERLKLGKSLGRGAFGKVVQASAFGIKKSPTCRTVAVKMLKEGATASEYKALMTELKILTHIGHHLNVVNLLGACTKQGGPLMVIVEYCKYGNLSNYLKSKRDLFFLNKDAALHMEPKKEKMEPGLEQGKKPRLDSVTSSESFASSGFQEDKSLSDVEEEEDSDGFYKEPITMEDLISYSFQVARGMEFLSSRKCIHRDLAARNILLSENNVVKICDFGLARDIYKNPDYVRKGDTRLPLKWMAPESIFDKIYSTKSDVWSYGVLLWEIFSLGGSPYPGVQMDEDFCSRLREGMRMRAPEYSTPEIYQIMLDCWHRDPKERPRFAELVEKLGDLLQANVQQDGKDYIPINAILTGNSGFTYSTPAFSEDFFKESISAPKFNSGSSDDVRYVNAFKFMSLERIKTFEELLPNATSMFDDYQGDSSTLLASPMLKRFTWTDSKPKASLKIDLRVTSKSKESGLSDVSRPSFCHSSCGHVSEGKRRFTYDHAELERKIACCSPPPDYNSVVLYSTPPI

Cytochrome P450 3A4 = Cytochrome P450 3A4 (Homo sapiens, UniProt P08684); conditions: bti-tn-5b1-4; note: in other assays of this panel Not Active means under 50% inhibition at 10 µM
Cytochrome P450 3A4, sequence (P08684 whole entry): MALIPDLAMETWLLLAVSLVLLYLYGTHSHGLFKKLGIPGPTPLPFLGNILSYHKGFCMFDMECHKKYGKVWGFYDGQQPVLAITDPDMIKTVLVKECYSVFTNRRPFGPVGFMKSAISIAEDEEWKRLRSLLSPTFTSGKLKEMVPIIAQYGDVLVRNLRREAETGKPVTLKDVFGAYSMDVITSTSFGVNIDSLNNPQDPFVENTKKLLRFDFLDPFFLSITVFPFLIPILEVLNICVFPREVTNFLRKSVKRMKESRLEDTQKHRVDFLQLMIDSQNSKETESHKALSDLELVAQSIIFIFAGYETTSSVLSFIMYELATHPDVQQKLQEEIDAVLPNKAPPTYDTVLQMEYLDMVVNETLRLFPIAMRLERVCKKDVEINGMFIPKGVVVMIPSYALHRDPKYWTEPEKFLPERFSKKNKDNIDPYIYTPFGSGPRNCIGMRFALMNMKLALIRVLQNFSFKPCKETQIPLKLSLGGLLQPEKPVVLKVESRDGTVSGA

Adenosine receptor A1 = molecular target: T6, Adenosine receptor A1 (Homo sapiens, UniProt P30542); assay type: cell membranes, CHO, Membrane; conditions: cho
T6 sequence (P30542 whole entry): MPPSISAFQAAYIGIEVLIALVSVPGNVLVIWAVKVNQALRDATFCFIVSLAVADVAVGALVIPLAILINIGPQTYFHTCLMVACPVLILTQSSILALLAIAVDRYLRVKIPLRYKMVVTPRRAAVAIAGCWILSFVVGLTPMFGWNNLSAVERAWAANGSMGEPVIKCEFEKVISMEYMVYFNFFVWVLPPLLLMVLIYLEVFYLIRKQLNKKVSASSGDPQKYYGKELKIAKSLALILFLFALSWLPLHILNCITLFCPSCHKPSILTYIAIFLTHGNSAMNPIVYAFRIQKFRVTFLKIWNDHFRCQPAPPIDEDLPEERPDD

5-hydroxytryptamine receptor 4, sequence (O70528 whole entry): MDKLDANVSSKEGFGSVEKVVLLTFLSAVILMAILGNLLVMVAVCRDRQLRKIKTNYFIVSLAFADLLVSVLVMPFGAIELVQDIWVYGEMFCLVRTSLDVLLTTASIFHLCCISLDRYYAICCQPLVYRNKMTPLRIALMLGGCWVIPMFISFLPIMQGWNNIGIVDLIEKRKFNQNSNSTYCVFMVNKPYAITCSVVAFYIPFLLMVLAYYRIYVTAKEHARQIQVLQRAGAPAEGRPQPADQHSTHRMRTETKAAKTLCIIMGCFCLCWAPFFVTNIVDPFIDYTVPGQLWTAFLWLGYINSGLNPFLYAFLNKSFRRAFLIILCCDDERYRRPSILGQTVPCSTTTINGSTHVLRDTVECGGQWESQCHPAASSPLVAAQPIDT

Structure (SMILES) | IC50 [1] | IC50 [2] | IC50 [3] | IC50 (Leukotriene C4 synthase) | IC50 [4] | Ki [4] | IC50 [5] | IC50 [6] | Ki [6] | IC50 ([7]; hela) | IC50 (Thromboxane-A synthase) | IC50 (Calcitonin receptor) | IC50 [8] | IC50 (Cytochrome P450 3A4) | Ki (Cytochrome P450 3A4) | IC50 (Adenosine receptor A1) | IC50 ([4]; read-out: IC50) [µM] | Ki ([4]; read-out: Ki) [µM] | IC50 ([7]; read-out: IC50) [µM] | Ki ([7]; read-out: Ki) [µM]
C/C=C1\[C@H]2C=C(C)C[C@]1(N)c1ccc(=O)[nH]c1C2 [HUPERZINE A] | Not Active | Not Active | Not Active | Not Active | Not Active | Not Active | Not Active | Not Active | Not Active | Not Active | Not Active | Not Active | Not Active | Not Active | Not Active | Not Active |  |  |  | 
NS(=O)(=O)c1cc2c(cc1Cl)NCNS2(=O)=O [HYDROCHLOROTHIAZIDE] | Not Active | Not Active | Not Active | Not Active | Not Active | Not Active | Not Active | Not Active | Not Active | Not Active | Not Active | Not Active | Not Active | Not Active | Not Active | Not Active |  |  |  | 
CN1CCC[C@H]1c1cccnc1 [NICOTINE] | Not Active | Not Active | Not Active | Not Active | Not Active | Not Active | Not Active | Not Active | Not Active | Not Active | Not Active | Not Active | Not Active | Not Active | Not Active | Not Active |  |  |  | 
O=C1CN=C(c2ccccc2)c2cc([N+](=O)[O-])ccc2N1 [NITRAZEPAM] | Not Active | Not Active | Not Active | Not Active |  |  | Not Active | Not Active | Not Active | Not Active | Not Active | Not Active | Not Active | Not Active | Not Active | Not Active | 0.0547 | 0.0446 |  | 
CNCCC=C1c2ccccc2CCc2ccccc21 [NORTRIPTYLINE] | Not Active | Not Active | Not Active | Not Active | Not Active | Not Active | Not Active | Not Active | Not Active |  | Not Active | Not Active | Not Active | Not Active | Not Active | Not Active |  |  | 0.554 | 0.257
Oc1cccc2cccnc12 [OXYQUINOLINE] | Not Active | Not Active | Not Active | Not Active | Not Active | Not Active | Not Active | Not Active | Not Active | Not Active | Not Active | Not Active | Not Active | Not Active | Not Active | Not Active |  |  |  | 
CN(C)[C@@H]1C(O)=C(C(N)=O)C(=O)[C@@]2(O)C(O)=C3C(=O)c4c(O)cccc4[C@@](C)(O)[C@H]3[C@H](O)[C@@H]12 [OXYTETRACYCLINE] | Not Active | Not Active | Not Active | Not Active | Not Active | Not Active | Not Active | Not Active | Not Active | Not Active | Not Active | Not Active | Not Active | Not Active | Not Active | Not Active |  |  |  | 
Fc1ccc([C@@H]2CCNC[C@H]2COc2ccc3c(c2)OCO3)cc1 [PAROXETINE] | Not Active | Not Active | Not Active | Not Active | Not Active | Not Active | Not Active | Not Active | Not Active | Not Active | Not Active | Not Active | Not Active | Not Active | Not Active | Not Active |  |  |  | 
CC(C)(S)[C@@H](N)C(=O)O [PENICILLAMINE] | Not Active | Not Active | Not Active | Not Active | Not Active | Not Active | Not Active | Not Active | Not Active | Not Active | Not Active | Not Active | Not Active | Not Active | Not Active | Not Active |  |  |  | 

Source: ChEMBL document CHEMBL1909046, “DrugMatrix in vitro pharmacology data”
